# Test results published in Sander's compilation of Henry's law constants (doi:10.1021/je900711h).
# Assay: Henry solubility constant Hcp at 298.15 K (mol/(m3 Pa))
# Conditions: reference: O’Farrell and Waghorne (2010)
row,SMILES,Henry solubility constant Hcp
1,"CC(=O)C(Cl)Cl [1,1-dichloro-2-propanone]",0.33
2,"COCCOC [1,2-dimethoxyethane]",2.1
3,"C1COCOC1 [1,3-dioxane]",1.8
4,CC(=O)CF [1-fluoro-2-propanone],0.46
5,"OCC(Cl)Cl [2,2-dichloroethanol]",0.37
6,"OCC(F)F [2,2-difluoroethanol]",0.92
7,CCC(=O)CC [3-pentanone],0.21
8,O=C1CCCC1 [cyclopentanone],2.8
9,CCO [ethanol],2.2
10,CC(C)=O [propanone],0.33
